Laboratory results taken from patent US20170217976A1, “6-(AMINO ACID)-MORPHINAN DERIVATIVES IN COMBINATION WITH PERMEATION […] FOR USE AS AN ORALLY, […], TRA[…] NASALLY AD[…]” (C[…], priority 2014, published 2017).
Like-named read-outs stand apart in the source and are kept apart here.

Assays:
MOR = target: T1, MOR (Rattus norvegicus, UniProt P33535); assay: Opioid receptor binding, MOR, rat brain membranes
T1 construct: from tissue

[1] = target: T2, human MOP expressed in CHO cells (Homo sapiens, UniProt P35372); assay: [35S]GTPγS binding, antagonism at MOR (Ke against DAMGO); assay type: biochemical; conditions: for Kb: [35S]GTPγS binding, MOR Ke, Table 1-6, antagonist Ke measured against DAMGO
T2 construct: expressed in transfected cells; host or cells: CHO cells (per the unit's head)
T2 sequence (P35372 whole entry): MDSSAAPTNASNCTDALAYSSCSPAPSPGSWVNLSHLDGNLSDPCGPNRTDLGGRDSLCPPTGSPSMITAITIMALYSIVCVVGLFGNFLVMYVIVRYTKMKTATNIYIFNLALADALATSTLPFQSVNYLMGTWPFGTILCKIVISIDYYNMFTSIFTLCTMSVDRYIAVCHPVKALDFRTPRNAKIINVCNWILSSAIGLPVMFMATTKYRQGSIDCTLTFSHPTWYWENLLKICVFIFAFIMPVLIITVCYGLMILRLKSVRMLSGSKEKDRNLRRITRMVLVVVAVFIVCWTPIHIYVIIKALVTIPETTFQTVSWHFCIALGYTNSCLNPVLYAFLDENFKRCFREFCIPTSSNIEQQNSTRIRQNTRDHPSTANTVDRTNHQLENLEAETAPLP

KOR = target: T3, KOR (Cavia porcellus, UniProt P41144); assay: Opioid receptor binding, KOR, guinea pig brain membranes
T3 construct: from tissue
T3 sequence (P41144 whole entry): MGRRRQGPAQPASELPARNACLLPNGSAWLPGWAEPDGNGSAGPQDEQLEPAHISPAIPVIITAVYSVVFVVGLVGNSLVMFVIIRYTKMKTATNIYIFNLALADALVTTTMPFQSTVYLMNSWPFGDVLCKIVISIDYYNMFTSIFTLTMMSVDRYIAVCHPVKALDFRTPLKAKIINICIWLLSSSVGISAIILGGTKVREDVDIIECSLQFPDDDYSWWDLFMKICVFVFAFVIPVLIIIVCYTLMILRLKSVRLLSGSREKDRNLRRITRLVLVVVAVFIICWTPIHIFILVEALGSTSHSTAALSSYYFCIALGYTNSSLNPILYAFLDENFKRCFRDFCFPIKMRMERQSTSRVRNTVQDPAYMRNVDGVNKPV

DOR = target: T4, DOR (Rattus norvegicus, UniProt P33533); assay: Opioid receptor binding, DOR, rat brain membranes
T4 construct: from tissue
T4 sequence (P33533 whole entry): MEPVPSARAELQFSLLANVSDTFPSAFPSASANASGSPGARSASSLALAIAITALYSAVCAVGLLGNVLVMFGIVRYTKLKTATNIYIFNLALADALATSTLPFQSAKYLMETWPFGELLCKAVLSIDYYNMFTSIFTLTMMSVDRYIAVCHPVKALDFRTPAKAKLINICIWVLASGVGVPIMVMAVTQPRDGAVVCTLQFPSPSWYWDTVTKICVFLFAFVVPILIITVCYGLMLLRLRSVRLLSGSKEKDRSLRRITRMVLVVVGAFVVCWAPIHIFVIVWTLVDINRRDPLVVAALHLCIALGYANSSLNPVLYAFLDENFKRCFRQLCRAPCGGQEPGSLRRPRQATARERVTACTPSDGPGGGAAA

[2] = Binding Ki MOR, Table 1-6, rat brain membranes
[3] = Binding Ki MOR, Table 2-6, rat brain membranes
[4] = Binding Ki KOR, Table 1-6, guinea pig brain membranes
[5] = Binding Ki KOR, Table 2-6, guinea pig brain membranes
[6] = Binding Ki DOR, Table 1-6, rat brain membranes
[7] = Binding Ki DOR, Table 2-6, rat brain membranes
[8] = Binding Ki (nM) MOR, in vitro binding assay, rat brain membranes
[9] = Binding Ki MOR, Table 1-4, rat brain membranes
[10] = Binding Ki (nM) KOR, in vitro binding assay, guinea pig brain membranes
[11] = Binding Ki KOR, Table 1-4, guinea pig brain membranes
[12] = Binding Ki (nM) DOR, in vitro binding assay, rat brain membranes
[13] = Binding Ki DOR, Table 1-4, rat brain membranes

T1 sequence (P33535 whole entry): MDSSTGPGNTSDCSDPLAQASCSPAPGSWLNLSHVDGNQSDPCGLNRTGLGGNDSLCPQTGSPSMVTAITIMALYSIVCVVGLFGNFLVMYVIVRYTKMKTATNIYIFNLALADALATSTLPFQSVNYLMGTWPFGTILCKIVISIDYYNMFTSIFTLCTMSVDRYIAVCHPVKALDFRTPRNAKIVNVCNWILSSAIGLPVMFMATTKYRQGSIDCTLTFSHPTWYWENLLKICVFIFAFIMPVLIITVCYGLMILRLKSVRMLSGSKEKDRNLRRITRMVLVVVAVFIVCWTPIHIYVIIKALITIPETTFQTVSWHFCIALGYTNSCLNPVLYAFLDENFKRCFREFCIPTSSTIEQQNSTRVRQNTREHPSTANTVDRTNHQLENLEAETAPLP

Structure (SMILES) | Ki (MOR; [8]) | Ki (MOR; [9]) | Ki (KOR; [10]) | Ki (KOR; [11]) | Ki (DOR; [12]) | Ki (DOR; [13]) | also measured
O=C(O)C(Cc1ccccc1)NC1CCC2(O)C3Cc4ccc(O)c5c4C2(CCN3CC2CC2)C1O5 (single isomer, unassigned) [Compound 59] |  |  |  |  |  |  | Ki (MOR; [2]): 1.41 nM; Ki (MOR; [3]): 1.41 nM; EC50 [1]: > 10000 nM; Kb [1]: 0.25 nM; Ki (KOR; [4]): 2.65 nM; Ki (KOR; [5]): 2.65 nM; Ki (DOR; [6]): 3.53 nM; Ki (DOR; [7]): 3.53 nM
O=C(O)C(Cc1ccccc1)NC1CCC2(O)C3Cc4ccc(O)c5c4C2(CCN3CC2CC2)C1O5 (single isomer, unassigned) [Compound 60] |  |  |  |  |  |  | Ki (MOR; [2]): 1.83 nM; Ki (MOR; [3]): 1.83 nM; Kb [1]: 0.24 nM; EC50 ([1]; read-out: [35S]GTPγS binding, MOR EC50, Table 1-6, stimulation of [35S]GTPγS binding): > 10000 nM; Ki (KOR; [4]): 8.99 nM; Ki (KOR; [5]): 8.99 nM; Ki (DOR; [6]): 2.79 nM; Ki (DOR; [7]): 2.79 nM
CCO[C@@]12CCC(=O)[C@@H]3Oc4c(O)ccc5c4[C@@]31CCN(CC1CC1)[C@@H]2C5 [Compound 14-OEt-NTX, 14-O-Ethylnaltrexone, reference compound] |  |  |  |  |  |  | Ki (MOR; [2]): 0.35 nM; Ki (MOR; [3]): 0.35 nM; EC50 [1]: > 10000 nM; Kb [1]: 0.31 nM; Ki (KOR; [4]): 0.93 nM; Ki (KOR; [5]): 0.93 nM; Ki (DOR; [6]): 4.13 nM; Ki (DOR; [7]): 4.13 nM
CO[C@@]12CC[C@H](N[C@@H](CCC(N)=O)C(=O)O)[C@@H]3Oc4c(O)ccc5c4[C@@]31CCN(C)[C@@H]2C5 [Compound 17] | 3.24 nM | 3.24 nM | 351 nM | 351 nM | 5.13 nM | 5.13 nM | 
CO[C@@]12CC[C@@H](N[C@@H](CCC(N)=O)C(=O)O)[C@@H]3Oc4c(O)ccc5c4[C@@]31CCN(C)[C@@H]2C5 [Compound 18] | 2.48 nM | 2.48 nM | 290 nM | 290 nM | 4.87 nM | 4.87 nM | 
CO[C@@]12CC[C@H](N[C@@H](CCSC)C(=O)O)[C@@H]3Oc4c(O)ccc5c4[C@@]31CCN(C)[C@@H]2C5 [Compound 23] | 0.93 nM | 0.93 nM | 109 nM | 109 nM | 4.03 nM | 4.03 nM | 
CO[C@@]12CC[C@@H](N[C@@H](CCSC)C(=O)O)[C@@H]3Oc4c(O)ccc5c4[C@@]31CCN(C)[C@@H]2C5 [Compound 24] | 3.88 nM | 3.88 nM | 468 nM | 468 nM | 2.4 nM | 2.4 nM | 
CO[C@@]12CC[C@@H](NCC(=O)NCC(=O)O)[C@@H]3Oc4c(O)ccc5c4[C@@]31CCN(C)[C@@H]2C5 [Compound 25] |  | 4.62 nM |  | 203 nM |  | 7.52 nM | 
CO[C@@]12CC[C@@H](N[C@@H](CC(N)=O)C(=O)O)[C@@H]3Oc4c(O)ccc5c4[C@@]31CCN(C)[C@@H]2C5 [Compound 27] | 1.26 nM | 1.26 nM | 103 nM | 103 nM | 2.25 nM | 2.25 nM | 
CO[C@@]12CC[C@H](N[C@H](C(=O)O)[C@@H](C)O)[C@@H]3Oc4c(O)ccc5c4[C@@]31CCN(C)[C@@H]2C5 [Compound 34] | 1.03 nM | 1.03 nM | 120 nM | 120 nM | 4.13 nM | 4.13 nM | 
CO[C@@]12CC[C@@H](N[C@@H](CCCCN)C(=O)O)[C@@H]3Oc4c(O)ccc5c4[C@@]31CCN(C)[C@@H]2C5 [Compound 39] |  |  |  |  |  |  | Ki (MOR; Table 1-4, rat brain membranes, read-out: Binding Ki MOR): 0.53 nM; Ki (MOR; in vitro binding assay, rat brain membranes, read-out: Binding Ki (nM) MOR): 0.53 nM; Ki (KOR; Table 1-4, guinea pig brain membranes, read-out: Binding Ki KOR): 33.7 nM; Ki (KOR; in vitro binding assay, guinea pig brain membranes, read-out: Binding Ki (nM) KOR): 33.7 nM; Ki (DOR; Table 1-4, rat brain membranes, read-out: Binding Ki DOR): 3.34 nM; Ki (DOR; in vitro binding assay, rat brain membranes, read-out: Binding Ki (nM) DOR): 3.34 nM
CO[C@@]12CC[C@H](N[C@@H](CC(C)C)C(=O)O)[C@@H]3Oc4c(O)ccc5c4[C@@]31CCN(C)[C@@H]2C5 [Compound 40] | 0.68 nM | 0.68 nM | 141 nM | 141 nM | 2.34 nM | 2.34 nM | 
CO[C@@]12CC[C@@H](N[C@@H](CC(C)C)C(=O)O)[C@@H]3Oc4c(O)ccc5c4[C@@]31CCN(C)[C@@H]2C5 [Compound 41] | 1.32 nM | 1.32 nM | 297 nM | 297 nM | 1.01 nM | 1.01 nM | 
CC[C@H](C)[C@H](N[C@H]1CC[C@@]2(OC)[C@H]3Cc4ccc(O)c5c4[C@@]2(CCN3C)[C@H]1O5)C(=O)O [Compound 42] | 0.84 nM | 0.84 nM | 131 nM | 131 nM | 3.2 nM | 3.2 nM | 
CC[C@H](C)[C@H](N[C@@H]1CC[C@@]2(OC)[C@H]3Cc4ccc(O)c5c4[C@@]2(CCN3C)[C@H]1O5)C(=O)O [Compound 43] | 1.46 nM | 1.46 nM | 163 nM | 163 nM | 1.3 nM | 1.3 nM | 
CCO[C@@]12CC[C@H](N[C@@H](Cc3ccccc3)C(=O)O)[C@@H]3Oc4c(O)ccc5c4[C@@]31CCN(CC1CC1)[C@@H]2C5 [Compound 55] |  |  |  |  |  |  | Ki (MOR; [3]): 0.35 nM; Ki (KOR; [5]): 2.6 nM; Ki (DOR; [7]): 0.7 nM
CCO[C@@]12CC[C@@H](N[C@@H](Cc3ccccc3)C(=O)O)[C@@H]3Oc4c(O)ccc5c4[C@@]31CCN(CC1CC1)[C@@H]2C5 [Compound 56] |  |  |  |  |  |  | Ki (MOR; [3]): 1.04 nM; Ki (KOR; [5]): 11.6 nM; Ki (DOR; [7]): 1.76 nM
